Results from patent publication US20050164210A1, “Regulated polymerase III expression systems and related methods” (priority 2004, published 2005).

Test system: VgEcR and RXR
Test: murA induction of the E/GRE/Hsmin promoter: GFP+ cells by fluorescent microscopy and FACS, Western blot of GAL4-Oct-2Q(Q→A) and EGFP
Format: cell-based
Settings: 72 h
Description: High titer virus were produced by calcium phosphate transfection of retroviral DNA constructs into the LinX amphotrophic retroviral packaging cell line (17) followed by incubation with dexamethasone/butyrate (1 μM/ml) of packagers at 32° C. for 3 days. Infections were carried out by harvesting supernatants from LinX packagers, filtered through a […] membrane (Millipore), followed by the addition of polybrene (8 μM) to supernatants, finally overlaying onto actively dividing host cells (70% confluent). Cells were gently spun at room temperature for 30 min, incubated at 32° C. for 6 h. […]
Western blot analysis and antibodies. […] Signal intensities were determined after background corrections by using Alpha-Imager 2000 Documentation and Analysis Software (Alpha Innotech, San Leandro, Calif.). The percentage reduction in band intensity for each concentration of murA was calculated relative to the uninduced samples and normalized against β-tubulin.
The ecdysone inducible system is comprised of three Moloney murine leukemia virus (MoMLV)-based retroviral vectors, the two vectors expressing nuclear receptors/transcription factors VgEcR and RXR, and a third construct, pEind-RNAi expressing a chimeric transactivator GAL4-Oct-2^Q(Q→A), and an internal ribosomal entry site (IRES) linked enhanced green fluorescence protein (EGFP) under an inducible promoter E/GRE/Hsmin (FIG. 1A). […]

For `CC(C)CC[C@@H](O)[C@](C)(O)[C@H]1CC[C@@]2(O)C3=CC(=O)[C@]4(O)C[C@@H](O)[C@@H](O)C[C@]4(C)[C@H]3[C@H](O)C[C@]12C` [murA, muristerone A], which “Levels of GAL4-Oct-2Q(Q→A) and EGFP protein (Western blot)” value (5 μM murA, versus untreated controls) is on record?
Its value is “increased levels”.

And the “GFP+ cells following induction with murA” value (sorted stable cells, 0.5 μM murA (microscopy), 5 μM murA (FACS))?
The value was greater than 95%.
